Laboratory results reported in PubChem BioAssay (NCI).
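Five compound concentrations were applied to cells in 96-well plates for 48 hours; endpoints were derived by simple linear interpolation of the resulting dose-response curve. GI50 = concentration required for 50% inhibition of growth. TGI is the concentration that stops growth completely.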

Key:
Assay in all cases: growth of human tumour cells (NCI), 48 h
[1] = system: T-47D breast
[2] = system: SF-268 CNS
[3] = system: HCT-15 colon
[4] = system: UACC-257 melanoma
[5] = system: MALME-3M melanoma
[6] = system: SF-539 CNS
[7] = system: ACHN renal
[8] = system: LOX IMVI melanoma
[9] = system: UO-31 renal
[10] = system: A549 NSCLC
[11] = system: CCRF-CEM leukemia
[12] = system: HOP-92 NSCLC
[13] = system: MOLT-4 leukemia
[14] = system: DU-145 prostate
[15] = system: COLO 205 colon
[16] = system: RPMI-8226 leukemia
[17] = system: SK-MEL-2 melanoma
[18] = system: NCI-H460 lung
[19] = system: OVCAR-3 ovarian
[20] = system: UACC-62 melanoma
[21] = system: NCI-H522 lung
[22] = system: BT-549 breast
[23] = system: SK-MEL-28 melanoma
[24] = system: NCI-H23 lung
[25] = system: PC-3 prostate
[26] = system: K-562 leukemia
[27] = system: SK-OV-3 ovarian
[28] = system: SN12C renal
[29] = system: HS 578T breast

## CCCOc1ccc2sc(NC(=O)OC)nc2c1
[1]
  TGI: > 100 µM
[2]
  GI50: > 100 µM
  TGI: > 100 µM
[3]
  GI50: 0.611 µM
  TGI: > 100 µM
[4]
  GI50: > 100 µM
  TGI: > 100 µM
[5]
  GI50: 3.81 µM
  TGI: > 100 µM
[6]
  GI50: 2.91 µM
  TGI: > 100 µM
[7]
  GI50: > 25.1 µM
  TGI: > 100 µM
[8]
  GI50: 5.66 µM
  TGI: > 100 µM
[9]
  GI50: 6.07 µM
  TGI: > 100 µM
[10]
  GI50: 4.2 µM
  TGI: > 100 µM
[11]
  GI50: 2.07 µM
  TGI: > 28.4 µM
[12]
  GI50: 3.38 µM
  TGI: > 100 µM
[13]
  GI50: 2.73 µM
  TGI: > 100 µM
[14]
  GI50: 4.05 µM
  TGI: > 100 µM
[15]
  GI50: 0.838 µM
  TGI: 13.5 µM
[16]
  GI50: 2.65 µM
  TGI: > 100 µM
[17]
  GI50: 2.05 µM
  TGI: > 100 µM
[18]
  GI50: 3.11 µM
  TGI: > 100 µM
[19]
  GI50: 2.27 µM
  TGI: 19.9 µM
[20]
  GI50: 3.64 µM
  TGI: > 100 µM
[21]
  GI50: 1.69 µM
  TGI: > 25 µM
[22]
  GI50: 3.81 µM
  TGI: > 100 µM
[23]
  GI50: 18.6 µM
  TGI: > 100 µM
[24]
  GI50: 5.77 µM
  TGI: > 100 µM
[25]
  GI50: 3.48 µM
  TGI: > 100 µM
[26]
  GI50: 0.419 µM
  TGI: > 100 µM
[27]
  GI50: 4.36 µM
  TGI: > 100 µM
[28]
  GI50: 6.2 µM
  TGI: > 100 µM
[29]
  GI50: 3.48 µM
  TGI: > 100 µM
